Experimental data from publication PMC3857288, “Characterization of Amylolysin, a Novel Lantibiotic from Bacillus amyloliquefaciens GA1” (PLoS ONE, 2013).
Like-named read-outs stand apart in the source and are kept apart here.

Experiments:
[1] = Direct interaction with [14C] lipid II, TLC migration; type: binding; conditions: [14C] lipid II 2.5 µM, amylolysin 0.2 µM, DMSO/1-octanol 60/40 v/v, 1 hour, room temperature, Molecular Imager FX
Description: (§1) Radiolabelled UDP-MurNac-pentapeptide, thereafter [^14C] lipid II, was prepared in vitro using E. coli K12 purified membrane from UDP-GlcNac and UDP-MurNAc-L-Ala-D-Glu-meso-DAP-D-[^14C]Ala-D-[^14C]Ala and subsequently purified as previously described. Inhibition of glycosyl transferase reaction was performed as described elsewhere with some modifications. Briefly, [^14C] lipid II (2.5µM; 0.125µCi nmol^-1), amylolysin (0.2 µM), His-tag PBP1bγ from E. coli (15 nM) were incubated in 25mM Tris-HCl (pH7,5), 0,5 % decyl PEG, 10 mM MgCl2, 12% 1-octanol, 25 % DMSO for 1 hour at 30 °C. The reaction products were separated by thin layer chromatography (TLC) on silica plate (SilG, […], Macherey-Nagel, Duren, Germany) using a mixture of methanol/chloroform/ammoniac/water (88/48/10/1, v/v/v/v) as mobile phase. For interaction experiment, [^14C] lipid II (2.5 µM; 0.125µCinmol^-1) and amylolysin (0.2 µM) were incubated in DMSO/1-octanol mixture (60/40 v/v) for 1 hour at room temperature before being subjected to TCL using a butanol/acetic acid/pyridine/water mixture (15/3/12/10, v/v/v/v) as mobile phase. The radioactive compounds were detected and analyzed with a Molecular Imager FX system (Biorad Laboratories).

[2] = system: L. monocytogenes (three clinical or food isolates); test: MIC, microdilution (CLSI), summary for three isolates; type: cell-based, Listeria monocytogenes; conditions: summary value of the text for the three L. monocytogenes isolates tested; BH medium, 37 °C, 24 h, triplicate
Description: (§2) Minimal inhibitory concentration (MIC) was determined for an array of bacterial and yeast strains by a microdilution method following the Clinical and Laboratory Standard Institute (CLSI) recommended procedure. Briefly, the different indicator strains were aerobically grown in 24-wells culture plates in the presence of purified amylolysin at concentration ranging from 0.1 to 2.8 µM in the appropriate medium and temperature conditions as stipulated in table 1. Each well was seeded at an OD600 of 0.1. After 24 h of incubation, cell growth was estimated based on OD600 measurements. The MIC values were defined as the lowest amylolysin concentration that is able to inhibit cell growth. Each experiment was performed in triplicate.

[3] = system: His-tag PBP1bγ from E. coli; test: Inhibition of the transglycosylation (glycosyl transferase) reaction, TLC of [14C] lipid II; type: biochemical; conditions: [14C] lipid II 2.5 µM, amylolysin 0.2 µM, PBP1bγ 15 nM, 25 mM Tris-HCl pH 7.5, 0.5 % decyl PEG, 10 mM MgCl2, 12% 1-octanol, 25 % DMSO, 1 hour, 30 °C
Description: as §1

[4] = system: Staphylococcus aureus ATCC 25923; test: MIC, microdilution (CLSI); type: cell-based; conditions: BH medium, 37 °C, 24-well plates, seeded at OD600 0.1, 24 h, amylolysin 0.1-2.8 µM, OD600 read-out, triplicate
Description: as §2

Bacillus cereus RFB125 = test: MIC, microdilution (CLSI); type: cell-based; conditions: clinical isolate; LB medium, 37 °C, 24-well plates, seeded at OD600 0.1, 24 h, amylolysin 0.1-2.8 µM, OD600 read-out, triplicate
Description: as §2

[5] = system: Listeria monocytogenes LMG 23905; test: MIC, microdilution (CLSI); type: cell-based; conditions: BH medium, 37 °C, 24-well plates, seeded at OD600 0.1, 24 h, amylolysin 0.1-2.8 µM, OD600 read-out, triplicate
Description: as §2

[6] = system: Enterococcus faecalis ATCC 29212; test: MIC, microdilution (CLSI); type: cell-based; conditions: BH medium, 37 °C, 24-well plates, seeded at OD600 0.1, 24 h, amylolysin 0.1-2.8 µM, OD600 read-out, triplicate
Description: as §2

[7] = system: Bacillus megaterium RFB124; test: MIC, microdilution (CLSI); type: cell-based; conditions: LB medium, 37 °C, 24-well plates, seeded at OD600 0.1, 24 h, amylolysin 0.1-2.8 µM, OD600 read-out, triplicate
Description: as §2

[8] = system: Listeria innocua ATCC33090; test: MIC, microdilution (CLSI); type: cell-based; conditions: BH medium, 37 °C, 24-well plates, seeded at OD600 0.1, 24 h, amylolysin 0.1-2.8 µM, OD600 read-out, triplicate
Description: as §2

[9] = system: Lactobacillus plantarum RFB138; test: MIC, microdilution (CLSI); type: cell-based; conditions: lab stock; MRS medium, 27 °C, 24-well plates, seeded at OD600 0.1, 24 h, amylolysin 0.1-2.8 µM, OD600 read-out, triplicate
Description: as §2

Listeria innocua RFB159 = test: MIC, microdilution (CLSI); type: cell-based; conditions: clinical isolate; BH medium, 37 °C, 24-well plates, seeded at OD600 0.1, 24 h, amylolysin 0.1-2.8 µM, OD600 read-out, triplicate
Description: as §2

[10] = system: Listeria monocytogenes LM2234; test: MIC, microdilution (CLSI); type: cell-based; conditions: clinical isolate; BH medium, 37 °C, 24-well plates, seeded at OD600 0.1, 24 h, amylolysin 0.1-2.8 µM, OD600 read-out, triplicate
Description: as §2

[11] = system: Staphylococcus aureus ATCC 43300 (methicillin resistant); test: MIC, microdilution (CLSI); type: cell-based; conditions: methicillin resistant strain; BH medium, 37 °C, 24-well plates, seeded at OD600 0.1, 24 h, amylolysin 0.1-2.8 µM, OD600 read-out, triplicate
Description: as §2

Listeria ivanovii RFB160 = test: MIC, microdilution (CLSI); type: cell-based; conditions: BH medium, 37 °C, 24-well plates, seeded at OD600 0.1, 24 h, amylolysin 0.1-2.8 µM, OD600 read-out, triplicate
Description: as §2

[12] = system: Staphylococcus epidermis ATCC 1228; test: MIC, microdilution (CLSI); type: cell-based; conditions: BH medium, 37 °C, 24-well plates, seeded at OD600 0.1, 24 h, amylolysin 0.1-2.8 µM, OD600 read-out, triplicate
Description: as §2

Weissella sp RFB139 = test: MIC, microdilution (CLSI); type: cell-based; conditions: lab stock; MRS medium, 27 °C, 24-well plates, seeded at OD600 0.1, 24 h, amylolysin 0.1-2.8 µM, OD600 read-out, triplicate
Description: as §2

[13] = system: Listeria monocytogenes LMG 21263; test: MIC, microdilution (CLSI); type: cell-based; conditions: BH medium, 37 °C, 24-well plates, seeded at OD600 0.1, 24 h, amylolysin 0.1-2.8 µM, OD600 read-out, triplicate
Description: as §2

[14] = system: Streptococcus agalactiae RFB141; test: MIC, microdilution (CLSI); type: cell-based; conditions: clinical isolate; BH medium, 37 °C, 24-well plates, seeded at OD600 0.1, 24 h, amylolysin 0.1-2.8 µM, OD600 read-out, triplicate
Description: as §2

[15] = system: Bacillus subtilis ATCC 6633; test: MIC, microdilution (CLSI); type: cell-based; conditions: LB medium, 37 °C, 24-well plates, seeded at OD600 0.1, 24 h, amylolysin 0.1-2.8 µM, OD600 read-out, triplicate
Description: as §2

[16] = system: Staphylococcus aureus RFB127; test: MIC, microdilution (CLSI); type: cell-based; conditions: lab stock; BH medium, 37 °C, 24-well plates, seeded at OD600 0.1, 24 h, amylolysin 0.1-2.8 µM, OD600 read-out, triplicate
Description: as §2

[17] = system: Enterococcus faecium RFB128; test: MIC, microdilution (CLSI); type: cell-based; conditions: lab stock; BH medium, 37 °C, 24-well plates, seeded at OD600 0.1, 24 h, amylolysin 0.1-2.8 µM, OD600 read-out, triplicate
Description: as §2

[18] = system: Enterococcus faecalis RFB129; test: MIC, microdilution (CLSI); type: cell-based; conditions: clinical isolate; BH medium, 37 °C, 24-well plates, seeded at OD600 0.1, 24 h, amylolysin 0.1-2.8 µM, OD600 read-out, triplicate
Description: as §2

[19] = system: Micrococcus luteus ATCC 9341; test: MIC, microdilution (CLSI); type: cell-based; conditions: BH medium, 37 °C, 24-well plates, seeded at OD600 0.1, 24 h, amylolysin 0.1-2.8 µM, OD600 read-out, triplicate
Description: as §2

meat proteases = conditions: cited from earlier work
Excerpt: (§3) The majority of the bacteriocins described to date are from lactic bacteria with nisin, used commercially in many countries as preservative in food products, being the best characterized compound. […] In regards to their high level of protease production, Bacillus sp. has been considered as interesting alternative source for antimicrobial peptides with increased protease tolerance. In our laboratory, B. amyloliquefaciens ...

[20] = type: physicochemical; conditions: agar diffusion, M. luteus ATCC 9341
Description: To evaluate sensitivity to proteases, purified amylolysin samples were quantified by RP-HPLC after 24h of incubation at 37°C with proteinase K and pronase (10 µg/ml, Sigma-Aldrich). Heat stability was evaluated after incubation for 60 min at various temperatures (25, 55, 65, 75 and 100 °C) whereas pH sensitivity was evaluated after a 1h-incubation in 200 mM HCl/KCl buffer (pH 2-3), acetate buffer (pH 4-6) and Tris buffer (pH 7-9). After those treatments, the remaining amylolysin activity was determined using the agar diffusion assays as described elsewhere, using Micrococcus luteus ATCC 9341 as an indicator strain.

[21] = above pH 6; cited from earlier work
Excerpt: as §3

Substance: amylolysin
- direct amylolysin-lipid II interaction (delay of migration of the complex on TLC) [1]: direct interaction between the two partners
- MIC [2]: ~0.5 µM
- inhibition of the transglycosylation reaction (lipid II polymerisation) [3]: Inhibition of the transglycosylation reaction
- MIC [4]: 2.8 µM
- MIC (Bacillus cereus RFB125): 0.2 µM
- MIC [5]: 0.4 µM
- MIC [6]: 1.4 µM
- MIC [7]: 0.4 µM
- MIC [8]: 0.7 µM
- MIC [9]: >2.8 µM
- MIC (Listeria innocua RFB159): 0.7 µM
- MIC [10]: 0.4 µM
- MIC [11]: 0.4 µM
- MIC (Listeria ivanovii RFB160): 0.8 µM
- MIC [12]: 2.8 µM
- MIC (Weissella sp RFB139): 2.8 µM
- MIC [13]: 0.5 µM
- MIC [14]: 2.8 µM
- MIC [15]: 1.4 µM
- MIC [16]: 1.4 µM
- MIC [17]: 0.1 µM
- MIC [18]: 0.7 µM
- MIC [19]: 0.7 µM
- sensitivity to meat proteases (meat proteases): less sensitive to meat proteases than nisin
- reduction of biological activity ([20]; 100 °C for 1 hour): 7%
- antimicrobial activity reduction ([20]; acidic condition, pH 2, 1 h): 11%
- antimicrobial activity reduction ([20]; alkaline condition, pH 9, 1 h): 7%

Substance: nisin
- solubility [21]: low solubility above pH 6
